Entries after “also recorded” stand apart in the source; their conditions may differ.
How the values were obtained:
peanut = settings: increased from 3.9% with no antioxidant; cited from earlier work
CAMBIA 1302 plasmid = assay: DNA binding by agarose gel electrophoresis (gel mobility); settings: 50 ng plasmid, 100-300 ng fullerene compound, preincubated 15-30 minutes
Procedure: Each tube was allowed to bind for 15-30 minutes and then place on an agarose gel. […] After running the gel, the bands were visualized using post-staining with commercial SBER SAFE™ 10000× stain.
DNA binding was measured at different fullerene nanoparticle/DNA ratios. The DNA-binding ability of the fullerene test compounds 1, 2, 4, and 6 was examined by direct DNA binding and agarose gel electrophoresis. […] In each case, 50 ng plasmid DNA was preincubated for 30 minutes with 100-300 nG fullerene compound (FIG. 8). The DNA binding titration of plasmid pCAMBIA 1302 with compound 6 was carried with 50 nG pCAMBIA 1302 and various concentrations (93-3000 nG per 10 microL). Results shown in FIG. 8 indicate optimal binding at a concentration of ˜5-6 equivalents fullerene per DNA. FIG. 8 Lane 1: 50 ng of DNA Plasmid DNA only, Lane 2: 50 ng of DNA Plasmid DNA+3000 ng compound 6 (50 equiv), Lane 3: 50 ng of DNA Plasmid DNA+1500 ng compound 6 (25 equiv), Lane 4: 50 ng of DNA Plasmid DNA+750 ng compound 6 (12 equiv), Lane 5: 50 ng of DNA Plasmid DNA+375 ng compound 6 (6 equiv), Lane 6: 50 ng of DNA Plasmid DNA+187 ng compound 6 (3 equiv), Lane 7: 50 ng of DNA Plasmid DNA+93 ng compound 6 (1.5 equiv). Compound 6 stock solution (0.3 mg/mL) was diluted with TE buffer and 10 microL each fullerene dilution was reincubated with plasmid for […] to loading on the gel.

tobacco protoplast cells = assay: Fullerene-enhanced electroporation, GFP expression; assay type: cell-based, Nicotiana tabacum; settings: tobacco protoplasts, GFP DNA, fluorescence microscope; without fullerene no GFP expression
Procedure: One embodiment of the invention is called fullerene-enhanced electroporation. The method comprises (1) mixing fullerene derivative solution with the DNA of interest, (2) addition of fullerene derivative/DNA solution to plant cells or plant protoplasts, and (3) treatment of the mixture in a Gene Pulser cuvette or similar electroporation apparatus for a few minutes. Suspension was then incubated for 2-3 hours or overnight to allow DNA transfer and gene expression to take place. […] On the left is the light microscope picture showing tobacco protoplast cells after electroporation. […] Experiments to test the fullerene nanoparticles for transformation ability used tobacco protoplasts for transient assays. Sterile suspension cultures (5% w/v) of tobacco (Nicotiana tabacum) were grown in MS basal salts media. Suspension cells were incubated in enzyme solution (0.6 M mannitol, 10 mM MES, 1% Cellulase, 0.2% pectinase) at pH 5.7 in the dark, at 24° C. overnight. After incubation, protoplasts were passed through […] nylon mesh, washed and protoplasts pelleted by centrifugation. Protoplasts were resuspended in the appropriate media required for transformation studies. Electroporation is the process where cells are mixed with a DNA construct and then briefly exposed to pulses of high voltage. […]

Row | Molecule | Transformation frequencies (peanut) | DNA binding (change in gel mobility) (CAMBIA 1302 plasmid) | GFP expression after electroporation (tobacco protoplast cells)
1 | N[C@@H](CCC(=O)N[C@@H](CS)C(=O)NCC(=O)O)C(=O)O [glutathione] | 14.6% |  | 
2 | O=[Se](O)O [selenite] | 12.4% |  | 
3 | FC4S [Compound 2] |  | no DNA binding effect; also recorded: no binding to DNA | 
4 | polyhydroxy-C60 [Compound 1] |  | no DNA binding effect; also recorded: no binding to DNA | gene insertion and GFP expression
5 | tocopherol | 10.3% |  | 
